Measured values from paper PMC12064818, “A general assay platform to study protein pharmacology using ligand-dependent structural dynamics” (Nature Communications, 2025).

Assays:
[1] = target: T1, ABL1-N-HiBiT kinase domain (Homo sapiens, UniProt P00519); assay: SDR assay, ABL1-N-HiBiT
T1 sequence (P00519 233-500): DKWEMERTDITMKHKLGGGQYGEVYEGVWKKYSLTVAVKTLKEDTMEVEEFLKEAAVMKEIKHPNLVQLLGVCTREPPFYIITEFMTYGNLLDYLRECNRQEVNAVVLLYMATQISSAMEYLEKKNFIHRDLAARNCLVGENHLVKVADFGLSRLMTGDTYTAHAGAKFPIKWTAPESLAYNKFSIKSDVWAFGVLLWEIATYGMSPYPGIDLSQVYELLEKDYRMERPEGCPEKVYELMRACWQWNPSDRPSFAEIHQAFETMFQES

P. pyralis FLuc = P. pyralis FLuc (Photinus pyralis, UniProt P08659); assay: FLuc enzymatic luminescence assay, P. pyralis FLuc; assay type: biochemical; details: FLuc enzymatic assay
Chain of P. pyralis FLuc (P08659 whole entry): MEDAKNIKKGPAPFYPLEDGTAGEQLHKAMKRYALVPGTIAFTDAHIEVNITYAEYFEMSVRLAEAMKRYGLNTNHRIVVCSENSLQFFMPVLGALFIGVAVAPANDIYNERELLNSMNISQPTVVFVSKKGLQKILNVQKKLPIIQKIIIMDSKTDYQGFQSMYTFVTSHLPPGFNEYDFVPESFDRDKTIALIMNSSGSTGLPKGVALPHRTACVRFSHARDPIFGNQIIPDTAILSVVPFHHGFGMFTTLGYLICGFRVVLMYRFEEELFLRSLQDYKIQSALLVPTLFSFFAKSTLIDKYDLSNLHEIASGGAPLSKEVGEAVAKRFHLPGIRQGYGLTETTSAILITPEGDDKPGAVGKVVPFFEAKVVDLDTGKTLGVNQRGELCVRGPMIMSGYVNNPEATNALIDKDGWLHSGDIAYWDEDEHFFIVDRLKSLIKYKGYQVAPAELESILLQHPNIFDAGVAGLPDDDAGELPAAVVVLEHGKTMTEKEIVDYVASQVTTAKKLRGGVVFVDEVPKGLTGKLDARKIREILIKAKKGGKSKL
In short: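 Runs with and without 10 µM ATP: compounds were pre-incubated with FLuc (1–10 nM, PBS pH 7.4) at ambient temperature, light-protected, for 30–60 min. Luminescence was imaged 5 min after adding 10 µM D-luciferin (final). Inhibition was scaled between DMSO neutral and no-enzyme controls.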

Row | SMILES | EC50 [1] [µM] | Efficacy (%) FLuc E (P. pyralis FLuc; Clade S follow-up) [%] | IC50 (P. pyralis FLuc; read-out: IC50 or SDR50 (mM) FLuc E) [mM]
1 | Nc1ncnc2c1ncn2[C@@H]1O[C@H](COP(=O)(O)OP(=O)(O)OP(=O)(O)O)[C@@H](O)[C@H]1O [ATP] | 24.5 |  | 
2 | CC(CNC(=O)C1CCN(C(=O)c2ncn3c2COC(c2ccccc2)C3)CC1)c1ccccc1 (stereo not drawn) [compound 00449795] |  | -95.72 | 0.00197
